Results taken from patent publication US7268152B2, “Glucocorticoid mimetics, methods of making them, pharmaceutical compositions, and uses thereof” (Boehringer Ingelheim Pharmaceuticals, Inc., priority 2002, dated 2007).

What was measured:
[1] = target: T1, human glucocorticoid receptor (GR) complex (Homo sapiens, UniProt P04150); test: Glucocorticoid receptor competitive binding assay (fluorescence polarization); conditions: competition with TAMRA-labeled dexamethasone
T1 construct: made in house; host or cells: insect expression system (baculovirus lysate)
T1 sequence (P04150 1-777): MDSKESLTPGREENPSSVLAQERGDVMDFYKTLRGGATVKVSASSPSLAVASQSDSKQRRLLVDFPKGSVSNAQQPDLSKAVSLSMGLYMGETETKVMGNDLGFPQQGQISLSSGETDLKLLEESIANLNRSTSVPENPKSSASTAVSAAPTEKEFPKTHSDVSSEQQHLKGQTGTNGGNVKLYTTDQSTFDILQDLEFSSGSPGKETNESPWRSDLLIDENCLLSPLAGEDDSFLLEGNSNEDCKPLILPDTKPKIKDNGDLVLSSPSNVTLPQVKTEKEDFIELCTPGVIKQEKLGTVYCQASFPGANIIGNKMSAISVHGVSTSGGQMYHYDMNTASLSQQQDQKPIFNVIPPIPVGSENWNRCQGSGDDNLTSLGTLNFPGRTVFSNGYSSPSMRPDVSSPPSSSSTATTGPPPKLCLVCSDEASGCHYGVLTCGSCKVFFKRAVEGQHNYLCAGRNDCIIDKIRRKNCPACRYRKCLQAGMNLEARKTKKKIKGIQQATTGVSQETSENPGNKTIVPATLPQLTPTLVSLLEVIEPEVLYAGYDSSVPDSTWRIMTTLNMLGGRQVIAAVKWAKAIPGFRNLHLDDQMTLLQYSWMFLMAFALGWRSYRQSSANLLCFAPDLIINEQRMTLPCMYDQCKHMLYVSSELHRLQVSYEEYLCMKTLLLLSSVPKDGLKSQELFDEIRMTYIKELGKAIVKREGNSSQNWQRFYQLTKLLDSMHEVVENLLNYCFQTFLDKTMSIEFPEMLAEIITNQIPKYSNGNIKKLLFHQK
Procedure, shortened: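 FP competition against 15 nM TAMRA-labeled dexamethasone (stock added) for GR complex in baculovirus insect-cell lysate, buffer 10 mM TES, 50 mM KCl, 20 mM molybdate, pH 7.4 with 1 mM DTT. Incubated 1 h at room temperature, read at ex 550/em 580 nm; IC50 from 4-parameter logistic fit.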

glucocorticoid receptor = test: One or more of the above assays (GR binding and GR cell assays; not specified which); format: cell-based; conditions: in one or more of the above assays

IC50 [1] | Structure (SMILES) | activity as agonists of the glucocorticoid receptor function (glucocorticoid receptor) | melting point
≤ 100 nM | CC(C)(CC(O)(Cc1cc(C(F)(F)F)cc(Cl)c1F)C(F)(F)F)c1cccc2ccoc12 (stereo not drawn) [4-Benzofuran-7-yl-2-(3-chloro-2-fluoro-5-trifluoromethylbenzyl)-1,1,1-trifluoro-4-methylpentan-2-ol] | activity as agonists | –
– | COc1ccc(F)cc1C(C)(C)CC(O)(Cc1cc(C)cc(C)c1C#N)C(F)(F)F (stereo not drawn) [Example 32, 2-[4-(5-fluoro-2-methoxyphenyl)-2-hydroxy-4-methyl-2-trifluoromethylpentyl]-4,6-dimethylbenzonitrile] | – | 134 to 136 °C
